From patent EP1509215B1, “TREATMENT OR PREVENTION OF UROGENITAL ATROPHY AND ITS SYMPTOMS IN WOMEN” (Hormos Medical Ltd., priority 2002, dated 2003)

Tests used:
vaginal epithelium = assay: Cervical smear: maturity index / karyopyknosis index of the vaginal epithelium, clinical phase I-II study; settings: for Change in maturity index for superficial cells (MI3 mean) / Change in maturity index for parabasal cells (MI1 mean): after 3 months; for Change in maturity index for superficial cells (MI3 mean): index 100 full estrogen, index 0 no estrogenicity; for Change in maturity index for parabasal cells (MI1 mean): index 100 no estrogenicity, index 0 full estrogen; for change from baseline to post-treatment in the karyopyknosis index for superficial cells: individuals, start to 12 weeks, ospemifene 30, 60, 90 mg daily, raloxifene 60 mg daily, result in words; for increase in the karyopyknosis index for superficial cells: 12 weeks
Experimental: Tolerability and pharmacokinetics were also assessed. Raloxifene (60 mg daily) was used as reference. Ospemifene was given perorally at the doses of 30, 60 and 90 mg daily. There were 29 volunteers at each dose level, as well as in the raloxifene group. Ospemifene was administered in gelatine capsules containing either 30, 60 or 90 mg of ospemifene. […] The vaginal epithelium was assessed by karyopyknosis index which is a well known assessment method among the skilled persons. In this method, the vaginal fraction of the cervical smears is estimated as the percentage of the number of cells from different layers: the parabasal cell layer; the intermediate cell layer; and the superficial cell layer. Estrogenicity is seen by a shift towards superficial cell fraction. In postmenopausal women this fraction usually is close to zero and estradiol treatment increases the fraction close to 100. Samples were taken before and after the treatment (at 3 months).
Table 1. […] (MI 1: index 100 no estrogenicity; index 0 full estrogen, and MI 3: index 100 full estrogen; index 0 no estrogenicity).

[1] = Tolerability in the clinical studies; assay type: in vivo, posmenopausal women
Experimental: (§1) A clinical phase I-II study was carried out to study the effects of ospemifene on endometrial thickness, endometrial pathology, (biopsy taken by curettage as described by Vuopala et al, 1982) and cervical smear in healthy postmenopausal female volunteers in the age range 55 to 69 years. Tolerability and pharmacokinetics were also assessed. Raloxifene (60 mg daily) was used as reference. Ospemifene was given perorally at the doses of 30, 60 and 90 mg daily. […] Ospemifene was administered in gelatine capsules containing either 30, 60 or 90 mg of ospemifene.
Based on the present data, the optimal clinical dose is expected to be higher than 25 mg daily and lower than 100 mg daily. A particularly preferable daily dose is found in the range 30 to 90 mg. […] In addition, ospemifene decreases total and LDL cholesterol, increases HDL cholesterol, and prevents osteoporosis and early stage breast cancer.

endometrium [2] = assay: Endometrial histology (biopsy taken by curettage), clinical phase I-II study; assay type: in vivo, healthy postmenopausal female volunteers; settings: 30, 60, 90 mg daily, 3 months
Experimental: as §1
(§2) This effect is clearly weaker than that seen with estrogen replacement therapy. […] The measured values were always smaller than 8 mm, which is considered to be a thickness which is indicative for a physiologically significant estrogenicity of SERMs like tamoxifen (Hann et al, 1997; Lahti et al, 1993).

endometrium [3] = assay: Thickness of the endometrium by ultrasonography, clinical phase I-II study; assay type: in vivo, healthy postmenopausal female volunteers; settings: for increase in the thickness of the endometrium (average): 3 months, statistically not significant
Experimental: as §1, §2

Experimental for urogenital atrophy: In this study, raloxifene (60 mg/day) or ospemifene at different doses were given to elderly female volunteers for a period of 3 months.
77 were treated with 25-30 mg, 78 with 50-60 mg, 78 with 90-100 mg and 8 with 200 mg daily dose of ospemifene. In the control groups, 47 were treated with placebo and 29 with raloxifene. […] The symptoms include both vaginal and urinary symptoms such as vaginal discomfort with irritation, itching, burning, smarting, postcoital bleeding, vulvar itching and/or malodorous discharge and leukorrhea.

SMILES | Change in maturity index for superficial cells (MI3 mean) (vaginal epithelium; 60 mg daily perorally) | Change in maturity index for parabasal cells (MI1 mean) (vaginal epithelium; 60 mg daily perorally) | change from baseline to post-treatment in the karyopyknosis index for superficial cells (vaginal epithelium) | tolerability [1] | malignant findings in the endometrium (endometrium [2]) | estrogenic effect on endometrial histology (endometrium [2]; clearly weaker than with estrogen replacement therapy) | Change in maturity index for superficial cells (MI3 mean) (vaginal epithelium; 30 mg daily perorally) | Change in maturity index for parabasal cells (MI1 mean) (vaginal epithelium; 30 mg daily perorally) | Change in maturity index for superficial cells (MI3 mean) (vaginal epithelium; 90 mg daily perorally) | Change in maturity index for parabasal cells (MI1 mean) (vaginal epithelium; 90 mg daily perorally) | estrogenic effect in the cervical smear (vaginal epithelium; 30, 60, 90 mg daily, 3 months) | pathological changes in cervical smear samples (vaginal epithelium; 30, 60, 90 mg daily, 3 months) | increase in the karyopyknosis index for superficial cells (vaginal epithelium; individual cases, all ospemifene groups (30, 60, 90 mg daily), all cases except one) | increase in the karyopyknosis index for superficial cells (vaginal epithelium; one case in the 90 mg group) | increase in the thickness of the endometrium (average) (endometrium [3]; 30 mg daily) [mm] | increase in the thickness of the endometrium (average) (endometrium [3]; 60 mg daily) [mm] | increase in the thickness of the endometrium (average) (endometrium [3]; 90 mg daily) [mm] | thickness of the endometrium, measured values (endometrium [3]; all measured values, 30, 60, 90 mg daily) | vaginal atrophy (urogenital atrophy; 30, 60 and 90 mg daily, 3 months, elderly female volunteers) | symptoms associated with urogenital atrophy (vaginal and urinary) (urogenital atrophy; spontaneous reports of some subjects, 25-200 mg daily, 241 women treated)
O=C(c1ccc(OCCN2CCCCC2)cc1)c1c(-c2ccc(O)cc2)sc2cc(O)ccc12 [Raloxifene, reference compound] | -0.3 | -2 | no one in the raloxifene group (Fig. 1D) had a significant change | – | – | – | – | – | – | – | – | – | – | – | – | – | – | – | – | –
OCCOc1ccc(/C(=C(/CCCl)c2ccccc2)c2ccccc2)cc1 [Ospemifene, (deaminohydroxy)toremifene] | +5.5 | -26 | slight increases | excellent tolerability | no malignant findings | weak estrogenic effect | +12.4 | -40 | +12.5 | -48 | weak but statistically significant estrogenic effect | No pathological changes | < 40 | 45 | 0.2 | 0.5 | 0.5 | smaller than 8 mm | significant decrease in vaginal atrophy | alleviation of the symptoms associated with urogenital atrophy
